Experimental data as given in US20150119429A1, “Iron Chelators as HIV-1 Inhibitors” (Howard University, priority 2012, published 2015).

How the values were obtained:
[1] = system: VSVG-pseudotyped pNL4-3.Luc.R-E-(HIV-1 Luc) virus; assay: One round of HIV-1-Luc replication in CEM cells (luciferase activity); format: cell-based; details: for inhibition of HIV-1 replication compared with Bp4eT: CEM cells infected 18 h, treated 24 h at 37° C., FIG. 8; for IC50: Human immunodeficiency virus 1, CCRF-CEM, CEM cells infected about 18 h, treated about 24 h at about 37° C., FIG. 2, read-out: IC50 for inhibition of HIV-1 replication
[2] = system: CEM cells; assay: Toxicity of iron chelators in CEM cells (calcein-AM fluorescence); format: cell-based, human; details: about 24 h at about 37° C., micromolar concentrations, FIG. 3
[3] = system: cellular iron in THP-1 cells; assay: Cellular iron chelation in THP-1 cells (calcein fluorescence); format: cell-based, human; details: THP-1 cells treated with FeS, loaded with calcein-AM, versus control SIH compound, FIG. 4
Protocol: To assess iron chelating efficiency, human acute monocytic leukemia cell line (THP-1) cells were untreated (control) or treated with FeS for about 1 hr at about 37° C., and then loaded with iron sensor, calcein-AM for about 10 min at about 37° C. After washing with phosphate buffer solution (PBS), cells were treated with various iron chelators. In Figure. 4, calcein fluorescence was measured in a real-time PCR machine as a function of time. Fractional fluorescence (F-Fi)/Fi is proportional to the amount of chelatable iron.

[4] = system: IkB gene; assay: Induction of IkB gene expression in 293T cells (real-time PCR); format: cell-based, human; details: about 24 hours of treatment, DDCt vs DMSO, FIG. 5
[5] = system: heme oxygenase-1 gene; assay: Induction of heme oxygenase-1 expression in THP-1 cells (real-time PCR); format: cell-based, human; details: about 24 hours of treatment, DDCt, hemin at 100 μM, FIG. 6

Row | Molecule | inhibition of HIV-1 replication compared with Bp4eT [1] | IC50 [1] [µM] | toxicity [2] | iron chelating efficiency (fractional calcein fluorescence) [3] | expression of IkB [4] | expression of heme oxygenase-1 (HO-1) [5]
1 | CCNC(=S)N/N=C(\Cc1ccccc1)c1ccccn1 [PpYeT] | inhibit HIV-1 replication comparable to the effect of previously studied Bp4eT chelator | 0.014 | Neither PPY, nor representative PpYeT and PpYaT compounds show significant toxicity | better than the control SIH compound | induce expression of IkB | induce expression of heme oxygenase-1 (HO-1)
2 | hemin [reference compound] |  |  |  |  |  | induced expression of HO-1
3 | CCNC(=S)N/N=C(\c1ccccc1)c1ccccn1 [Bp4-eT, reference compound] |  | 0.0075 |  |  |  | 
4 | O=C(Cc1ccccc1)c1ccccn1 [PPY, 2-phenyl-1-pyridin-2yl-ethanone, reference compound] |  |  | Neither PPY, nor representative PpYeT and PpYaT compounds show significant toxicity |  |  | 
5 | C=CCNC(=S)N/N=C(\Cc1ccccc1)c1ccccn1 [PpYaT] | inhibit HIV-1 replication comparable to the effect of previously studied Bp4eT chelator | 0.014 | Neither PPY, nor representative PpYeT and PpYaT compounds show significant toxicity | better than the control SIH compound | induce expression of IkB | induce expression of heme oxygenase-1 (HO-1)
